# In ChEMBL document CHEMBL1159234, “Antitumor agents, 157. Absolute structures of cumingianosides A-F, antileukemic triterpene glucosides, and structures of the hydrolysates of cumingianoside A” (J Nat Prod, 1995):
# System: MOLT-4
# Assay: Cytotoxicity against human MOLT4 cells
# Assay type: functional, cell-based
row,Structure (SMILES),EC50 [nM]
1,CC(=O)OC[C@H]1O[C@@H](O[C@@H]2C[C@H]3C(C)(C)[C@H](OC(C)=O)CC[C@]3(C)[C@H]3CC[C@]45C[C@]4(CC[C@H]5[C@@H](C)C[C@@H](O)[C@H](O)C(C)(C)O)[C@@]32C)[C@H](O)[C@@H](O)[C@@H]1O [CUMINGIANOSIDE A],< 6.25
2,COC(C)(C)[C@@H](O)[C@H](O)C[C@H](C)[C@@H]1CC[C@]23C[C@]12CC[C@@H]1[C@@]2(C)CC[C@@H](OC(C)=O)C(C)(C)[C@@H]2C[C@@H](O[C@@H]2O[C@H](COC(C)=O)[C@@H](O)[C@H](O)[C@H]2O)[C@]13C [CUMINGIANOSIDE C],< 4.5
